pKi: −log10 of the molar value.
Key:
[1] = biological target: T1, Nitric oxide synthase, inducible (Mus musculus, UniProt P29477); assay: The compound was tested for competitive antagonist of Nitric oxide synthase; format: functional
T1 sequence (P29477 whole entry): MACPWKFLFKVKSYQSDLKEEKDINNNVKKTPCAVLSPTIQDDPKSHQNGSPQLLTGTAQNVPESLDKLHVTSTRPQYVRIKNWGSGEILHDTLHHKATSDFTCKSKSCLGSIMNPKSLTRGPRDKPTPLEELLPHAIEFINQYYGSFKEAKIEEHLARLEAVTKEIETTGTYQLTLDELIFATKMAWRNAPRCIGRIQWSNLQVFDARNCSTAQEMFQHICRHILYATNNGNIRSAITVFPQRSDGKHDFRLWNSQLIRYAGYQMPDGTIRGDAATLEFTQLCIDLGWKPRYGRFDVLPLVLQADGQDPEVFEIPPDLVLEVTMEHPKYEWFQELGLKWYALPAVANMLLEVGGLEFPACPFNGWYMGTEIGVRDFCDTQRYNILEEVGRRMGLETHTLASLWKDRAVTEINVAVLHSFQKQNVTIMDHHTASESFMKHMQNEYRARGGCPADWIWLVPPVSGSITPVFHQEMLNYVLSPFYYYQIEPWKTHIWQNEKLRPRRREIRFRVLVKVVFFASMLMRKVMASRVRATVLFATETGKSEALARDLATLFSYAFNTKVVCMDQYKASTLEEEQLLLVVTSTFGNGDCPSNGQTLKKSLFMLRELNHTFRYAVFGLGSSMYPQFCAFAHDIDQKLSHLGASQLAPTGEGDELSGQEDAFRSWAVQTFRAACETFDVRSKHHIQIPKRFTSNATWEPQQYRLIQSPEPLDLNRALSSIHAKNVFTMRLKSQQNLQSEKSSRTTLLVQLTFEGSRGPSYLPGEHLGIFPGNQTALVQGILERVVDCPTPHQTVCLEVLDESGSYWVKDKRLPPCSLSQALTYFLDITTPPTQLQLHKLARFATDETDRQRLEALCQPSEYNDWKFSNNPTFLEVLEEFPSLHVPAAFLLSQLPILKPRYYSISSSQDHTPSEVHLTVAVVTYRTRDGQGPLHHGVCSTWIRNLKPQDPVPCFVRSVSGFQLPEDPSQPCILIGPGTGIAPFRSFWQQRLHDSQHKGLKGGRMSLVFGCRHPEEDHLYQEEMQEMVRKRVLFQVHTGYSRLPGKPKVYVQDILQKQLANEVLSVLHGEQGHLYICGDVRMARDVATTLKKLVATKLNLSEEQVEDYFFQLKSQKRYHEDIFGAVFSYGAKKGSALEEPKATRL

[2] = biological target: T2, Nitric oxide synthase, inducible (Mus musculus) (UniProt P29477)
T2 sequence (whole entry): T1 sequence (P29477 whole entry)
Description: Pseudo-first order inactivation rate constant against nitric oxide synthase was determined

[3] = biological target: T1, Nitric oxide synthase, inducible; assay: Compound was tested for competitive antagonist of Nitric oxide synthase; format: functional

SMILES: CC(=NO)NCCCC[C@H](N)C(=O)O
- pKi [1]: 4.39

SMILES: CC(=NO)NCCC[C@H](N)C(=O)O
- pKi [1]: 4.42

SMILES: CC(=N)NCCC[C@H](N)C(=O)O [L-NIO]
- kinact [2]: 0.16 min⁻¹
- pKi [3]: 5.85

SMILES: CC(=N)NCCCC[C@H](N)C(=O)O [L-NIL]
- kinact [2]: 0.35 min⁻¹
- pKi [1]: 5.67

Source: ChEMBL document CHEMBL1132876, “Examination of N-hydroxylation as a prerequisite mechanism of nitric oxide synthase inactivation” (Bioorg Med Chem Lett, 2000)
